# Measurements as given in PMC10901950, “Neuroprotective and Anti-inflammatory Effects of Rubiscolin-6 Analogs with Proline Surrogates in Position 2” (Neurochemical Research, 2023).
# Square brackets hold non-standard residues; d marks the D form. Ends that are not written are not given here. Peptide text beside a SMILES is read from it. Dmt = Cc1cc(O)cc(C)c1C[C@H](N)C(=O)O
# Assays:
# [1] = system: SH-SY5Y cells; test: Mitochondrial membrane potential (JC-1) in 6-OHDA-treated SH-SY5Y cells; type: cell-based, human; details: 6-OHDA 100 µM, 6 h
# Method: Mitochondrial function was assessed by monitoring changes in MMP (∆Ψm) using the fluorescent probe, JC-1 fluorescence dye (5,5′,6,6′-tetrachloro-1,1′,3,3′-tetraethyl-imidacarbocyanine iodide, Molecular Probes, T3168, Eugene, Oregon, USA). The assay was performed according to the method described by Silva et al.. Briefly, SH-SY5Y cells were exposed 6 h to 6-OHDA (100 μM) in the presence or absence of peptides. After incubation, cells were washed with ice-cold PBS, and then JC-1 reagent (3 µM, 200 µL) was added for 15 min at 37 °C. Afterwards, JC-1 was removed, and cells were washed with PBS. The formation of JC-1 aggregates (490 nm of excitation and 590 nm of emission) and the monomeric form of JC-1 (490 nm of excitation and 530 nm of emission) was accompanied simultaneously in the plate reader for 30 min. Results were expressed as the ratio of the monomers/aggregates of JC-1 in the percentage of control.
# [2] = Oxygen radical absorption capacity (ORAC); details: peptides 10 µM, AAPH 12 mM, fluorescein; mean ± SEM
# Method: The ability of peptides to neutralize the peroxyl radicals was evaluated in ORAC according to the described method. Peptides (20 µL) and fluorescein (120 µL; 70 nM) were placed in a microplate well and pre-incubated for 15 min at 37 °C. Then, 60 µL of 2,2ʹ-azobis (2-amidino-propane) dihydrochloride (AAPH) as a radical generator was added in a final concentration of 12 mM. The fluorescence was read at wavelengths of 458 nm (excitation) and 520 nm (emission) and recorded every minute for 240 min. A blank using phosphate buffer instead of […] and a calibration curve using Trolox as standard (1–8 µM, final concentration) were also carried on in each assay. Final results were presented in µmol of Trolox equivalents/ µM peptide (µmol TE/ µM peptide).
# [3] = system: RAW 264.7 cells; test: Intracellular ROS generation in RAW 264.7 cells (not stimulated); type: cell-based, mouse; details: 0.1-10 µM, 24 h, DCFH-DA, unstimulated cells
# Method: The detection of ROS generated in injured cells was evaluated using the 5(6)-carboxy-2ʹ,7ʹ-dichlorofluorescein diacetate (carboxy-H2DCFDA) reagent (Invitrogen, Bleiswijk, Netherlands). After incubation, cells were washed with ice-cold Phosphate-Buffer Saline (PBS). Then, the carboxyl-H2DCFDA (100 µL, 20 µM) reagent was added and incubated for 1 h at 37 °C. Finally, the fluorescence intensity was measured at wavelengths of […], and ROS levels were presented in percentage of control (non-treated cells).
# [4] = system: SH-SY5Y cells; test: Cytotoxicity on SH-SY5Y cells (MTT); type: cell-based, human; details: 10 µM, 24 h
# Method: The neuroprotective experiments were performed in an in vitro model of a human neuroblastoma cell line (SH-SY5Y) obtained from the German Collection of Microorganisms and Cell Cultures GmbH (DSMZ) Bank (ACC 209). Cells were cultured in Dulbecco’s Modified Eagle’s Medium: Nutrient Mixture F12 (DMEM:F12) supplemented with 1% antibiotic/antimycotic (Amphotericin B, Penicillin and Streptomycin) (Biowest, Nuaillé, France) and 10% (v/v) Fetal Bovine Serum (FBS) (Biowest, Riverside, MO, USA). The anti-inflammatory experiments were performed in an in vitro model of mouse macrophage-like RAW 264.7 cells, purchased from American Type Culture Collection (ATCC, Manassas, VA, USA). Cells were maintained in DMEM medium (Gibco™, Grand Island, NY) and supplemented with 10% bovine calf serum (BCS) (Gibco™, Grand Island, NY) and 1% penicillin–streptomycin (Sigma-Aldrich, St. Louis, MO, USA). Cell cultures were kept at 37 °C in 5% CO2/humidified air.
# Cells were incubated with peptides (0.1–10 µM) for 24 h to assess their cytotoxic activity. […] The resulting absorbance was read in a microplate reader (Biotek, Epoch/2 microplate reader, Winooski, VT, USA) at 570 nm.
# Cell metabolic activity (cytotoxicity) was calculated as the percentage of the value obtained for cells incubated with compounds compared to control cells treated with the medium.
compound,measurement,setting,value
"Cc1cc(O)cc(C)c1C[C@H](N)C(=O)N1CCC[C@H]1C(=O)N[C@@H](CC(C)C)C(=O)N[C@@H](CC(=O)O)C(=O)N[C@@H](CC(C)C)C(=O)N[C@@H](Cc1ccccc1)C(=O)O [analog 1, Dmt-Pro-Leu-Asp-Leu-Phe-OH] (H-[Dmt]PLDLF-OH)",effect on MMP depolarization,[1]; peptide 10 µM,couldn’t decrease
"YPLDLF [R-6, rubiscolin-6]","ORAC, ability to neutralize the peroxyl radicals",[2],2789 ± 131.6 µmol Eq. Trolox/g of peptide
same,effect on MMP changes caused by the neurotoxin,[1]; peptide 0.1-10 µM,markedly decreased
same,effect on intracellular ROS levels,[3],did not affect
"YPLDLF-NH2 [analog 6, Tyr-Pro-Leu-Asp-Leu-Phe-NH2]","ORAC, ability to neutralize the peroxyl radicals",[2],3143 ± 164.4 µmol Eq. Trolox/g of peptide
same,SH-SY5Y cell viability (cytotoxicity),[4],significantly decreased
